The values that follow are results of earlier work, collected in patent US8541178B2, “Analysis of antibody drug conjugates by bead-based affinity capture and mass spectrometry” (Genentech, Inc., priority 2008, dated 2013).

For the data set the following is noted: more cytotoxic than conventional cancer chemotherapeutic agents.

The structures appear in SMILES notation.

For `COc1cc2cc(c1Cl)N(C)C(=O)C[C@H](OC(=O)[C@H](C)N(C)C(C)=O)[C@]1(C)O[C@H]1[C@H](C)[C@@H]1C[C@@](O)(NC(=O)O1)[C@H](OC)/C=C/C=C(\C)C2` [Maytansine], the “Cytotoxicity relative to methotrexate, daunorubicin, and vincristine” value is 100- to 1000 fold.
